Data: patent US11375929B2, “Method and device for detection of bioavailable drug concentration in a fluid sample” (THE UNIVERSITY OF TENNESSEE RESEARCH FOUNDATION, priority 2008, dated 2022)

Assay: membrane/water partition coefficient calculated from CV peak current ratio of uncoated and PVC membrane-coated GC electrode (Equation 1)
Format: physicochemical

- Pmw (membrane/water partition coefficient) (PVC membrane I (o-NPOE), Cw=1 mM, iw/im ~140, Dm=4×10^−8 cm^2/s, Dw=8×10^−6 cm^2/s): 0.1
- Pmw (membrane/water partition coefficient) (membrane III (DOS), same protocol): 0.5
- Pmw (membrane/water partition coefficient) (membrane V (1-octanol), same protocol): 1.6
SMILES: CC(=O)Nc1ccc(O)cc1 [APAP, 4-acetamidophenol]
